Columns and labels:
[1] = Redox potential (redox potentiometry); format: physicochemical; conditions: compared with hydrogen (set at 0)
Excerpt: The ability of quinone compounds to accept electrons from another substance (i.e., be reduced) may be quantified using a technique known as redox potentiometry. Redox potentiometry is a technique that measures (in volts) the affinity of a substance for electrons—its electronegativity—compared with hydrogen (which is set at 0). Substances more strongly electronegative than (i.e., capable of oxidizing) hydrogen have positive redox potentials. Substances less electronegative than (i.e., capable of reducing) hydrogen have negative redox potentials. The greater the difference between the redox potentials of two substances (ΔE), the greater the vigor with which electrons will flow spontaneously from the less positive to the more positive (more electronegative) substance. As is well known in the art, redox potential may be measured using any of a variety of commercially available meters, such as an Oxidation Reduction Potential (ORP) tester commercially available from Hanna Instruments, Inc. of Woonsocket, R.I. The redox potential of the quinone compounds may, for instance, be less than about −50 millivolts (mV), in some embodiments less than about −150 mV, in some embodiments less than about −300 mV, and in some embodiments, less than about −500 mV. Although not always the case, the redox potential may vary based on the number and location of functional groups, such as sulfonic acid, on the quinone structure. For example, 2-sulfonic acid anthraquinone has a redox potential of −380 mV; 2,6-disulfonic acid anthraquinone has a redox potential of −325 mV; and 2,7-disulfonic acid anthraquinone has a redox potential of −313 mV. Likewise, 2-sulfonic acid naphthaquinone has a redox potential of −60 mV. The use of other functional groups may also have an affect on the ultimate redox potential of the compound. For example, Acid Blue 25, which also contains amino- and aramid functional groups, has a redox potential of −605 mV.

[2] = Urine odor panel ranking, dye powders in urine, 8 millimolar (Example 5); design: species or system human; conditions: 8 millimolar dye in urine; for urine malodor reduction (panel): 6 and 24 hours
Procedure: Qualitative odor reduction was also assessed against common odors, such as garlic and urine. Specifically, panelists assessed odorant-containing jars by carefully unscrewing, and then raising the lid of each jar in a controlled manner, such that the odor was not diluted by the ambient air. The jars were wrapped and coded to ensure that the sample identity was unknown. The effectiveness of various quinone dyes in reducing urine odor was compared. Human female urine was initially collected and pooled by a nurse on staff at Kimberly-Clark Corporation.

[3] = Urine odor and secondary odor panel ranking, dye powders in urine, 8 millimolar (Example 7); design: species or system human; conditions: for Average Urine Odor Ranking (with statistical corrections), Avg. Score: ignoring statistical anomalies; for Secondary Odor Ranking: scale 1 to 5, 5 extremely unpleasant, individual panelists' scores
Procedure: (§1) Qualitative odor reduction was also assessed against common odors, such as garlic and urine. Specifically, panelists assessed odorant-containing jars by carefully unscrewing, and then raising the lid of each jar in a controlled manner, such that the odor was not diluted by the ambient air. The jars were wrapped and coded to ensure that the sample identity was unknown.
The effectiveness of various dyes in reducing urine odor was compared. […] Human female urine was initially collected and pooled by a nurse on staff at Kimberly-Clark Corporation. The pooled urine was added to mason jars in 50-milliliter aliquots using an automated pipette aid. Powders of the aforementioned dyes (commercially available from Sigma-Aldrich Chemical Co., Inc. of St. Louis, Mo. and Noveon Hilton Davis, Inc. of Cincinnati, Ohio) were weighed and placed into the mason jars containing 50 milliliters of urine so that the final concentration of the dye powder was 8 millimolar (equivalent to 0.5 wt. %). The mason jars were placed in an incubator overnight at 37° C.
To aid in the assessment of the dyes, the mason jars were divided into two groups for a morning assessment, and the best of both groups were compared in an afternoon assessment (after a total of 24 hours). In addition to ranking the jars from least to most malodorous (on a scale from 1 to 7, with 7 being the most malodors), panelists were also asked to judge whether there were secondary (non-urine) odors present and, if so, the extent that the secondary odors were unpleasant (on a scale from 1 to 5, with 5 being extremely unpleasant).
In this assessment, panelists were given instructions to rank the least malodorous jar as “1” and the most malodorous jar as “10,” remaining free to rank the other jars between 2-9.

[4] = Urine odor panel ranking, dye-coated Poise pads without SN-AK (Example 8); design: species or system human
Procedure: as §1
Specifically, Acid Green 25, Acid Green 41, Acid Blue 129, and D&C Green No. 5 were tested. Powders of the aforementioned dyes (commercially available from Sigma-Aldrich Chemical Co., Inc. of St. Louis, Mo. and Noveon Hilton Davis, Inc. of Cincinnati, Ohio) were dissolved in water so that the concentration of the dye was 8 millimolar (equivalent to 0.5 wt. %). Samples of tissue wrap were created by cutting 9″×6″ sheets from a roll of tissue (1 ply white cellulose wrap sheet having a basis weight of 16.6 grams per square meter) were weighed, oven-dried overnight at 90° C., and weighed again the next day to calculate the amount of residual water in each wrap. The wraps were then dipped into a respective dye solution and hung to dry overnight, after which they were weighed again. The treated wraps were then rinsed in deionized water to remove any unbound dye and hung again to dry overnight. After weighing the treated wraps, they were once again oven-dried overnight at 90° C. and weighed to determine the dry add-on percentages ([…]). The add-on percentage for each sample was approximately 1.6 wt. %.
Two different sets of Poise® pads (commercially available from Kimberly-Clark Corp.) were tested. The first set of dye-coated tissue wraps (without SN-AK) was inserted around the pledgette area of the Poise® pads. The Poise® pads were cut open and the tissue wrap surrounding the pledgette carefully removed and replaced with dye-coated tissue wrap. The second set of dye-coated tissue wraps (without SN-AK) used dye coatings on the top of the pad (rather than inside). These pads were constructed by spreading the solution over the top of each pad. To prevent the superabsorbent area of the pad from soaking up the solution, the pads were cut open prior to coating and a layer of plastic wrap was placed between the top layer of the pad and the superabsorbent core. A pad that was cut open, but coated only with water on top, was used as a control. All pads were dried at room temperature overnight before placing them in mason jars for testing. For control purposes, a Poise® pad was also tested that was cut open, but retained its original tissue wrap. In addition, Serenity® Night & Day™ incontinence pads, which are commercially available from SCA Incontinence Care of Eddystone, Pa. and said to employ OdaSorb Plus™ to reduce odor, were also used for comparison.
Fresh human female urine was then pooled, and 50-milliliter aliquots were applied to the pads using a pipette. The mason jars were placed in a 37° C. incubator overnight for assessment the next day. […] Panelists were again asked to rank any secondary odors for unpleasantness on a scale of 1-5.

[5] = Urine odor panel ranking, dye powders in urine, 1.6 millimolar (Example 6); design: species or system human; conditions: 1.6 millimolar dye in urine, 24 hours, 37° C.
Procedure: as §1
The effectiveness of various dyes in reducing urine odor was compared. The dyes chosen for this example were powders of Acid Blue 25, Acid Blue 45, Acid Blue 129, FD&C Blue No. 1 (a triarylmethane dye), Acid Green 27, Acid Green 41, and Mordant Violet 5 (Alizarin Violet 3R) (commercially available from Sigma-Aldrich Chemical Co., Inc. of St. Louis, Mo.), as well as D&C Green No. 5 (commercially available from Noveon Hilton Davis, Inc. of Cincinnati, Ohio). Human female urine was initially collected and pooled by a nurse on staff at Kimberly-Clark Corporation. […] Powders of the aforementioned dyes were weighed and placed into the mason jars containing 50 milliliters of urine so that the final concentration of the dye powder was 1.6 millimolar (equivalent to 0.1 wt. %). […] A score of “10” was assigned to the most malodorous jar and a score of “1” was assigned to the least malodorous jar.

[6] = After 6 Hours, 10 most, 1 least malodorous
[7] = After 24 Hours, 10 most, 1 least malodorous
[8] = After 24 Hours, top performers of both groupings, 1 least, 10 most malodorous
[9] = Second Grouping, morning assessment, 8 millimolar, higher = more malodorous
[10] = after 24 hours, top performers, 1 least, 10 most malodorous
[11] = 1st set (tissue-wrap coating), After 30 Hours
[12] = First Grouping, morning assessment, 8 millimolar, 7 most malodorous
[13] = First Grouping, scale 1 to 7, 7 most malodorous

Compound: O=C1C=C(S(=O)(=O)O)C(=O)c2ccccc21 [2-sulfonic acid naphthaquinone]
- redox potential [1]: −60 mV

Compound: O=C1c2ccccc2C(=O)c2cc(S(=O)(=O)O)ccc21 [2-sulfonic acid anthraquinone]
- redox potential [1]: −380 mV

Compound: Cc1cc(C)c(Nc2cc(S(=O)(=O)[O-])c(N)c3c2C(=O)c2ccccc2C3=O)c(C)c1.[Na+] [Acid Blue 129]
- urine malodor reduction (panel) [2]: functioned effectively in reducing urine malodor
- Avg. Ranking (odor) [2, 6]: 1.6
- Ranking (number of panelists): ranking 1 [2, 6]: 4 number of panelists
- Ranking (number of panelists): ranking 4 [2, 6]: 1 number of panelists
- Avg. Ranking (odor) [2, 7]: 1.3
- Ranking (number of panelists): ranking 1 [2, 7]: 5 number of panelists
- Ranking (number of panelists): ranking 3 [2, 7]: 1 number of panelists
- Urine Odor Ranking (number of panelists): ranking 1 [3, 8]: 1 number of panelists
- Urine Odor Ranking (number of panelists): ranking 3 [3, 8]: 1 number of panelists
- Urine Odor Ranking (number of panelists): ranking 4 [3, 8]: 1 number of panelists
- Urine Odor Ranking (number of panelists): ranking 5 [3, 8]: 1 number of panelists
- Urine Odor Ranking (number of panelists): ranking 6 [3, 8]: 1 number of panelists
- Average Urine Odor Ranking, Avg. Score ([3]; Second Grouping): 1.8
- Urine Odor Ranking (number of panelists): ranking 1 [3, 9]: 3 number of panelists
- Urine Odor Ranking (number of panelists): ranking 3 [3, 9]: 2 number of panelists
- urine odor reduction (panel) ([3]; after 24 hours, top performers of both groupings): achieved the best odor reduction
- Average Urine Odor Ranking, Avg. Score [3, 10]: 3.8
- Average Urine Odor Ranking (with statistical corrections), Avg. Score ([3]; after 24 hours, top performers): 3.8
- Urine Odor Ranking (number of panelists): ranking 1 [4, 11]: 1 number of panelists
- Urine Odor Ranking (number of panelists): ranking 3 [4, 11]: 1 number of panelists
- Urine Odor Ranking (number of panelists): ranking 4 [4, 11]: 2 number of panelists
- Average Urine Odor Ranking, Avg. Score ([4]; 1st set (tissue-wrap coating), final pooled assessment): 3.00
- urine odor reduction (panel), assessment within set ([4]; first set of pads (dye-coated tissue wrap around pledgette), overnight 37° C.): performed best for the first set of pads
- overall urine odor control performance (panel) ([4]; tissue-wrap coating, final pooled assessment): performed very well

Compound: O=C1c2ccc(S(=O)(=O)O)cc2C(=O)c2ccc(S(=O)(=O)O)cc21 [2,6-disulfonic acid anthraquinone]
- redox potential [1]: −325 mV

Compound: O=C1c2ccc(S(=O)(=O)O)cc2C(=O)c2cc(S(=O)(=O)O)ccc21 [2,7-disulfonic acid anthraquinone]
- redox potential [1]: −313 mV

Compound: CCCCc1ccc(Nc2ccc(Nc3ccc(CCCC)cc3S(=O)(=O)[O-])c3c2C(=O)c2ccccc2C3=O)c(S(=O)(=O)[O-])c1.[Na+].[Na+] [Acid Green 27]
- urine malodor reduction (panel) [2]: functioned effectively in reducing urine malodor
- Avg. Ranking (odor) [2, 6]: 4.4
- Ranking (number of panelists): ranking 4 [2, 6]: 3 number of panelists
- Ranking (number of panelists): ranking 5 [2, 6]: 2 number of panelists
- Avg. Ranking (odor) [2, 7]: 4.5
- Ranking (number of panelists): ranking 1 [2, 7]: 1 number of panelists
- Ranking (number of panelists): ranking 3 [2, 7]: 2 number of panelists
- Ranking (number of panelists): ranking 7 [2, 7]: 3 number of panelists
- Urine Odor Ranking (number of panelists): ranking 2 [3, 8]: 1 number of panelists
- Urine Odor Ranking (number of panelists): ranking 8 [3, 8]: 2 number of panelists
- Urine Odor Ranking (number of panelists): ranking 9 [3, 8]: 1 number of panelists
- Urine Odor Ranking (number of panelists): ranking 10 [3, 8]: 1 number of panelists
- Secondary Odor Ranking ([3]; After 24 Hours): 4
- Average Urine Odor Ranking, Avg. Score ([3]; Second Grouping): 3.6
- Urine Odor Ranking (number of panelists): ranking 2 [3, 9]: 2 number of panelists
- Urine Odor Ranking (number of panelists): ranking 4 [3, 9]: 1 number of panelists
- Urine Odor Ranking (number of panelists): ranking 5 [3, 9]: 2 number of panelists
- Secondary Odor Ranking ([3]; Second Grouping): 2
- Average Urine Odor Ranking, Avg. Score [3, 10]: 6.4
- Average Urine Odor Ranking (with statistical corrections), Avg. Score ([3]; after 24 hours, top performers): 8.8

Compound: Nc1c(S(=O)(=O)[O-])cc(Nc2ccccc2)c2c1C(=O)c1ccccc1C2=O.[Na+] [Acid Blue 25]
- redox potential [1]: −605 mV
- Urine Odor Ranking (number of panelists): ranking 4 [3, 8]: 1 number of panelists
- Urine Odor Ranking (number of panelists): ranking 7 [3, 8]: 1 number of panelists
- Urine Odor Ranking (number of panelists): ranking 9 [3, 8]: 2 number of panelists
- Urine Odor Ranking (number of panelists): ranking 10 [3, 8]: 1 number of panelists
- Secondary Odor Ranking ([3]; After 24 Hours): 4
- Urine Odor Ranking (number of panelists): ranking 1 [3, 12]: 1 number of panelists
- Urine Odor Ranking (number of panelists): ranking 2 [3, 12]: 1 number of panelists
- Urine Odor Ranking (number of panelists): ranking 3 [3, 12]: 1 number of panelists
- Urine Odor Ranking (number of panelists): ranking 4 [3, 12]: 1 number of panelists
- Urine Odor Ranking (number of panelists): ranking 5 [3, 12]: 1 number of panelists
- Secondary Odor Ranking ([3]; First Grouping): 2
- Average Urine Odor Ranking, Avg. Score [3, 13]: 3.0
- Average Urine Odor Ranking, Avg. Score [3, 10]: 6.8
- Average Urine Odor Ranking (with statistical corrections), Avg. Score ([3]; after 24 hours, top performers): 8.8
- urine odor reduction (panel) ([3]; first grouping): functioned effectively to reduce odor

Compound: Cc1ccc(Nc2cccc3c2C(=O)c2cccc(Nc4ccc(C)cc4S(=O)(=O)[O-])c2C3=O)c(S(=O)(=O)[O-])c1.[Na+].[Na+]
- urine odor reduction (panel) [5]: did not perform as well in reducing odor as D&C Green No. 5
- Urine Odor Ranking (number of panelists): ranking 4 [3, 12]: 1 number of panelists
- Urine Odor Ranking (number of panelists): ranking 6 [3, 12]: 3 number of panelists
- Urine Odor Ranking (number of panelists): ranking 7 [3, 12]: 1 number of panelists
- Secondary Odor Ranking ([3]; First Grouping): 1
- Average Urine Odor Ranking, Avg. Score [3, 13]: 5.8
